In EP1757607A1, “N5-substituted benzo¬2,3|azepino¬4,5-b|indol-6-ones for treating tropical diseases” (Molisa GmbH, priority 2005, dated 2007):

Assays:
[1] = target: T1, Trypanothione Synthetase TS (Crithidia fasciculata, UniProt O60993); experiment: Inhibition of Trypanothione Synthetase (Table 1); assay type: biochemical; details: compound concentration not stated for Table 1
T1 sequence (O60993 1-652): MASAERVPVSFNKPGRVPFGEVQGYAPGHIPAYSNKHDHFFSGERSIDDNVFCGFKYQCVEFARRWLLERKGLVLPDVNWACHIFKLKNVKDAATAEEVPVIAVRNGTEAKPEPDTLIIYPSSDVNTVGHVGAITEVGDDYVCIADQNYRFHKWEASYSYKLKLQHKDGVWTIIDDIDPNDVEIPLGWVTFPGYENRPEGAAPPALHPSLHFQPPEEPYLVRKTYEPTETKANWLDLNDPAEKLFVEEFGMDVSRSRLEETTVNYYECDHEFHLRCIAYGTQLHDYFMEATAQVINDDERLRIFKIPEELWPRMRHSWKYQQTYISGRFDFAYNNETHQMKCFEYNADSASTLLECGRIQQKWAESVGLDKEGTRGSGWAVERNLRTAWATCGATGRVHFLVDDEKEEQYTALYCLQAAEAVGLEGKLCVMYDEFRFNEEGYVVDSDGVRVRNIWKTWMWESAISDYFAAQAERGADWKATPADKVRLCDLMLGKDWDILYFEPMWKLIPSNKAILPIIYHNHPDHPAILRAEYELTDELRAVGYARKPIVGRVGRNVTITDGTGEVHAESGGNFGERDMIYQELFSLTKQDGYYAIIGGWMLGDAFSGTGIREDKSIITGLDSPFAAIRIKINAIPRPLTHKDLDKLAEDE

TryS = target: T2, TryS (Crithidia fasciculata, UniProt O60993); experiment: Screening of potential inhibitors against TryS (malachite green, A650); assay type: biochemical; details: 10 µM compound; 90.75 nM TryS, 0.675 mM GSH, 6.75 mM spermidine, 45 µM ATP, room temperature, 60 min; triplicates; read-out: inhibitory effect (%)
T2 sequence (O60993 1-652): T1 sequence (O60993 1-652)
Description: The compounds were screened against TryS at 10 µM compound concentration. The inhibitory effect of each compound on TryS was measured in triplicates. Obvious outliers from the triplicates were removed. If the standard deviation of the two remaining inhibition values exceeded 25 % the measurement was repeated.
The screen was performed under the following conditions: 90.75 nM TryS was incubated with 0.675 mM GSH, 6.75 mM spermidine, 45 µM ATP, and 10 µM compound in a total volume of 80 µl 100 mM HEPES pH 7.5, 10 mM MgSO4, 0.1 mM EDTA, 5 mM DTT at room temperature for 60 min. Reaction was stopped by addition of 10 µl malachitgreen reagent. A650 was measured after 20 min. No compound was present in the positive controls (C+). Neither GSH nor spermidine was present in the negative controls (C-).

Row | Compound | Inhibition of TS % [1] [%] | inhibition at 10 µM (TryS) [%]
1 | CNCCNC(=O)CN1C(=O)Cc2c([nH]c3ccc(C#N)cc23)-c2ccccc21 [Compound 22, 2-(9-Cyano-6-oxo-6,7-dihydro-5H-benzo[2,3]azepino[4,5-b]indol-5-yl)-N-(2-methylamino-1-yl-ethyl)-acetamide] | 51.7 | –
2 | 2-(9-Bromo-6-oxo-6,7-dihydro-5H-benzo[2,3]azepino[4,5-b]indol-5-yl)-acetic acid hydrazide [Compound 26] | 0 | –
3 | NCCNC(=O)CN1C(=O)Cc2c([nH]c3ccc(Br)cc23)-c2ccccc21 [Compound 17, N-(2-Amino-1-yl-ethyl)-2-(9-bromo-6-oxo-6,7-dihydro-5H-benzo[2,3]azepino[4,5-b]indol-5-yl)-acetamide] | 78.6 | 96.8
4 | NCCCCNC(=O)CN1C(=O)Cc2c([nH]c3ccc(Br)cc23)-c2ccccc21 [Compound 19, N-(4-Amino-1-yl-butyl)-2-(9-bromo-6-oxo-6,7-dihydro-5H-benzo[2,3]azepino[4,5-b]indol-5-yl)-acetamide] | 16.2 | 54.3
5 | O=C(CN1C(=O)Cc2c([nH]c3ccc(Br)cc23)-c2ccccc21)N1CCNCC1 [Compound 25, N-[2-(9-Bromo-6-oxo-6,7-dihydro-5H-benzo[2,3]azepino[4,5-b]indol-5-yl)-acetyl]-piperazine] | 76.5 | –
6 | NCCCCNCCCNC(=O)CN1C(=O)Cc2c([nH]c3ccc(Br)cc23)-c2ccccc21 [Compound 21, N-(3-(4-Amino-1-yl-butylamino)-1-yl-propyl)-2-(9-bromo-6-oxo-6,7-dihydro-5H-benzo[2,3]azepino[4,5-b]indol-5-yl)-acetamide] | 22.5 | 47.6
7 | CNCCNC(=O)CN1C(=O)Cc2c([nH]c3ccccc23)-c2ccccc21 [Compound 23, N-(2-Methylamino-1-yl-ethyl)-2-(6-oxo-6,7-dihydro-5H-benzo[2,3]azepino[4,5-b]indol-5-yl)-acetamide] | 0 | –
8 | NCCCNC(=O)CN1C(=O)Cc2c([nH]c3ccc(Br)cc23)-c2ccccc21 [Compound 18, N-(3-Amino-1-yl-propyl)-2-(9-bromo-6-oxo-6,7-dihydro-5H-benzo[2,3]azepino[4,5-b]indol-5-yl)-acetamide] | 37.8 | 85.1
9 | CNCCNC(=O)CN1C(=O)Cc2c([nH]c3ccc(Br)cc23)-c2ccccc21 [Compound 13, 2-(9-Bromo-6-oxo-6,7-dihydro-5H-benzo[2,3]azepino[4,5-b]indol-5-yl)-N-(2-methylamino-1-yl-ethyl)-acetamide] | 92.4 | –
10 | NCCCNCCCCNC(=O)CN1C(=O)Cc2c([nH]c3ccc(Br)cc23)-c2ccccc21 [Compound 20, N-(4-(3-Amino-1-yl-propylamino)-1-yl-butyl)-2-(9-bromo-6-oxo-6,7-dihydro-5H-benzo[2,3]azepino[4,5-b]indol-5-yl)-acetamide] | 24.6 | 47.6
11 | CNCCNC(=O)CN1C(=O)Cc2c([nH]c3ccc(C)cc23)-c2ccccc21 [Compound 24, 2-(9-Methyl-6-oxo-6,7-dihydro-5H-benzo[2,3]azepino[4,5-b]indol-5-yl)-N-(2-methylamino-1-yl-ethyl)-acetamide] | 20.5 | –
